{
  "source": "patent US20250351832A1",
  "about": "“PHYTOCHEMICALS AS BIOPESTICIDES AND BIOSTIMULANTS” (KAY BEE BIO ORGANICS PVT. LTD., priority 2024, published 2025)",
  "key": {"Alternaria alternata [1]": {"test_system": "Alternaria alternata", "assay": "Alternaria leaf spot/blight on inoculated tomato plants (Ex. 28)", "type": "in vivo", "conditions": "tomato plants, Alternaria alternata; after 7 days; dose 1 ml/gm/lit"}, "Alternaria alternata [2]": {"test_system": "Alternaria alternata", "assay": "In vitro poisoned food technique against fungus (Ex. 20)", "type": "cell-based"}, "Spodoptera litura [3]": {"test_system": "Spodoptera litura", "assay": "whole plant or invertebrate", "conditions": "72 h"}, "Mealy Bug [4]": {"test_system": "Mealy Bug", "conditions": "mealy bug on cotton plants, green house, dose 1 ml/gm/lit. spray"}, "Thrips [5]": {"test_system": "Thrips", "conditions": "thrips on cotton plants, greenhouse, dose 1 ml/gm/lit. spray"}, "Thrips [6]": {"test_system": "Thrips", "assay": "whole plant or invertebrate", "conditions": "in Gossypium hirsutum, 48 h"}, "Spodoptera litura [7]": {"test_system": "Spodoptera litura", "conditions": "Spodoptera litura on castor leaves; dose 1 ml/gm/lit.; 10 insects/treatment; 72 hrs after application"}, "Aphid [8]": {"test_system": "Aphid", "assay": "whole plant or invertebrate", "conditions": "48 h"}, "[9]": {"conditions": "Table 13, descriptive; no test described; cited from earlier work"}, "Helicoverpa armigera [10]": {"test_system": "Helicoverpa armigera", "conditions": "Helicoverpa armigera 3rd instar on chickpea plants, dose 1 ml/gm/lit. spray"}, "Mite [11]": {"test_system": "Mite", "conditions": "Dose 1 ml/gm/lit."}, "Mite [12]": {"test_system": "Mite", "conditions": "mite on okra plants, green house, dose 1 ml/gm/lit. spray"}, "Helicoverpa armigera [13]": {"test_system": "Helicoverpa armigera", "conditions": "Helicoverpa armigera on okra fruits, dose 1 ml/gm/lit., 72 Hrs."}, "tomato seedlings": {"test_system": "tomato seedlings", "assay": "Response of tomato plants, greenhouse growth (Ex. 30)", "type": "in vivo", "conditions": "tomato seedlings, dose 1 ml/gm/lit"}, "chili seedlings": {"test_system": "chili seedlings", "assay": "Response of chili plants, greenhouse growth (Ex. 31)", "type": "in vivo", "conditions": "chili seedlings, dose 1 ml/gm/lit"}, "Thrips [14]": {"test_system": "Thrips", "conditions": "Thrips on cotton leaves; dose 1 ml/gm/lit.; 10 insects/treatment; 48 hrs after application"}, "Spodoptera litura [15]": {"test_system": "Spodoptera litura", "conditions": "Spodoptera litura 3rd instar on cabbage plants, dose 1 ml/gm/lit. spray"}, "Mealy Bug [16]": {"test_system": "Mealy Bug", "conditions": "Mealy Bug on cotton leaves, dose 1 ml/gm/lit., 48 Hrs."}, "Aphid [17]": {"test_system": "Aphid", "conditions": "Dose 1 ml/gm/lit."}, "Aphid [18]": {"test_system": "Aphid", "conditions": "Aphids on cotton plants, green house; dose 1 ml/gm/lit.; 10 insects/plant, 10 plants/treatment; 48 hrs"}, "[19]": {"conditions": "48 hrs, corrected for water control"}, "[20]": {"conditions": "read-out: % Corrected Mortality at 48 Hrs."}, "[21]": {"conditions": "read-out: % Mortality at 48 Hrs."}, "[22]": {"conditions": "72 hrs, corrected for water control"}, "[23]": {"conditions": "10 insects/treatment, 4 replications"}},
  "note": "Where two headings read alike, the source gives them in different places.",
  "data": [
    {"smiles": "C/C=C\\c1cc(OC)c(OC)cc1OC", "note": "[β-Asarone]", "values": [
      {"measurement": "% Disease reduction over Control", "setting": "Alternaria alternata [1]", "result": 64.46, "unit": "%"},
      {"measurement": "inhibition of growth at 1 mL or g/L", "setting": "Alternaria alternata [2]; […]", "result": 54, "unit": "%"},
      {"measurement": "Mean colony Diameter (mm)", "setting": "Alternaria alternata [2]; poisoned food technique, PDA medium, dose 1 ml/gm/lit., after seven days", "result": 40.50, "unit": "mm"},
      {"measurement": "mortality at 1 mL or g/L", "setting": "Spodoptera litura [3]; read-out: % Corrected Mortality at 72 Hrs.", "result": 57.9, "unit": "%"},
      {"measurement": "mortality at 1 mL or g/L", "setting": "Spodoptera litura [3]; read-out: % Mortality at 72 Hrs.", "result": 60, "unit": "%"},
      {"measurement": "% Mortality at 48 Hrs.", "setting": "Mealy Bug [4]; 48 hrs after application", "result": 35.00, "unit": "%"},
      {"measurement": "Total No. of dead insect at 48 Hrs.", "setting": "Mealy Bug [4]; 48 hrs after application", "result": 35.00},
      {"measurement": "% Corrected Mortality at 48 Hrs.", "setting": "Mealy Bug [4]; [19]", "result": 27.78, "unit": "%"},
      {"measurement": "% Mortality at 48 Hrs.", "setting": "Thrips [5]; 48 hrs after application", "result": 65.00, "unit": "%"},
      {"measurement": "Total No. of dead insect at 48 Hrs.", "setting": "Thrips [5]; 48 hrs after application", "result": 65.00},
      {"measurement": "% Corrected Mortality at 48 Hrs.", "setting": "Thrips [5]; [19]", "result": 61.11, "unit": "%"},
      {"measurement": "mortality at 1 mL or g/L", "setting": "Thrips [6]; [20]", "result": 62.9, "unit": "%"},
      {"measurement": "mortality at 1 mL or g/L", "setting": "Thrips [6]; [21]", "result": 67.5, "unit": "%"},
      {"measurement": "Total No. of dead insect at 72 Hrs.", "setting": "Spodoptera litura [7]", "result": 6.00},
      {"measurement": "mortality at 1 mL or g/L", "setting": "Aphid [8]; [20]", "result": 64.7, "unit": "%"},
      {"measurement": "mortality at 1 mL or g/L", "setting": "Aphid [8]; [21]", "result": 70, "unit": "%"},
      {"measurement": "Antifungal Activity - Mode of action", "setting": "[9]", "result": "Completely inhibited"},
      {"measurement": "Insecticidal Activities - Mode of action", "setting": "[9]", "result": "Reductions in oviposition"},
      {"measurement": "Nematicidal Activity - Mode of action", "setting": "[9]", "result": "Act as potent nematicide"},
      {"measurement": "% Mortality at 72 Hrs.", "setting": "Helicoverpa armigera [10]; 72 hrs after application", "result": 52.50, "unit": "%"},
      {"measurement": "% Corrected Mortality at 72 Hrs.", "setting": "Helicoverpa armigera [10]; [22]", "result": 52.50, "unit": "%"},
      {"measurement": "Total No. of dead insect at 48 Hrs.", "setting": "Mite [11]; 10 insects/treatment, 4 replications, okra leaves", "result": 2.50},
      {"measurement": "% Corrected Mortality at 48 Hrs.", "setting": "Mite [11]; 48 hrs", "result": 18.92, "unit": "%"},
      {"measurement": "% Mortality at 48 Hrs.", "setting": "Mite [11]; 48 hrs", "result": 25.00, "unit": "%"},
      {"measurement": "% Mortality at 48 Hrs.", "setting": "Mite [12]; 48 hrs after application", "result": 22.50, "unit": "%"},
      {"measurement": "Total No. of dead insect at 48 Hrs.", "setting": "Mite [12]; 48 hrs after application", "result": 22.50},
      {"measurement": "% Corrected Mortality at 48 Hrs.", "setting": "Mite [12]; [19]", "result": 18.42, "unit": "%"},
      {"measurement": "Total No. of dead insect at 72 Hrs.", "setting": "Helicoverpa armigera [13]; [23]", "result": 5.00},
      {"measurement": "% Mortality at 72 Hrs.", "setting": "Helicoverpa armigera [13]", "result": 50.00, "unit": "%"},
      {"measurement": "% Corrected Mortality at 72 Hrs.", "setting": "Helicoverpa armigera [13]; corrected for water control", "result": 50.00, "unit": "%"},
      {"measurement": "Plant Height 5th Day", "setting": "tomato seedlings; 5th day after application", "result": 6.72, "unit": "cm"},
      {"measurement": "Stem Girth 5th Day", "setting": "tomato seedlings; 5th day after application", "result": 1.72, "unit": "mm"},
      {"measurement": "Plant Height 10th Day", "setting": "tomato seedlings; 10th day after application", "result": 7.24, "unit": "cm"},
      {"measurement": "Stem Girth 10th Day", "setting": "tomato seedlings; 10th day after application", "result": 2.45, "unit": "mm"},
      {"measurement": "Plant Height % Increase over pre on 10th Day", "setting": "tomato seedlings; 10th day", "result": 27.69, "unit": "%"},
      {"measurement": "Stem Girth % Increase over pre on 10th Day", "setting": "tomato seedlings; 10th day", "result": 56.32, "unit": "%"},
      {"measurement": "CCI 5th Day", "setting": "tomato seedlings; 5th day after application", "result": 13.45},
      {"measurement": "CCI % Increase over pre on 10th Day", "setting": "tomato seedlings; 10th day", "result": 29.08, "unit": "%"},
      {"measurement": "Root Length (cm) 10th Day", "setting": "tomato seedlings; 10th day", "result": 4.43, "unit": "cm"},
      {"measurement": "CCI 10th Day", "setting": "tomato seedlings; 10th day after application", "result": 14.56},
      {"measurement": "Root Length % Increase over control", "setting": "tomato seedlings; 10th day, vs water control", "result": 33.31, "unit": "%"},
      {"measurement": "CCI 5th Day", "setting": "chili seedlings; 5th day after application", "result": 9.58},
      {"measurement": "Plant Height (cm) 5th Day", "setting": "chili seedlings; 5th day after application", "result": 5.70, "unit": "cm"},
      {"measurement": "CCI % Increase over pre on 10th Day", "setting": "chili seedlings; 10th day", "result": 40.02, "unit": "%"},
      {"measurement": "Plant Height % Increase over pre on 10th Day", "setting": "chili seedlings; 10th day", "result": 51.59, "unit": "%"},
      {"measurement": "Root Lenght (cm) 10th Day", "setting": "chili seedlings; 10th day", "result": 3.17, "unit": "cm"},
      {"measurement": "Stem Girth % Increase over pre on 10th Day", "setting": "chili seedlings; 10th day", "result": 40.46, "unit": "%"},
      {"measurement": "CCI 10th Day", "setting": "chili seedlings; 10th day after application", "result": 12.49},
      {"measurement": "Plant Height (cm) 10th Day", "setting": "chili seedlings; 10th day after application", "result": 7.61, "unit": "cm"},
      {"measurement": "Root Lenght % Increase over control", "setting": "chili seedlings; 10th day, vs water control", "result": 16.00, "unit": "%"},
      {"measurement": "Total No. of dead insect at 48 Hrs.", "setting": "Thrips [14]", "result": 6.75},
      {"measurement": "% Mortality at 72 Hrs.", "setting": "Spodoptera litura [15]; 72 hrs after application", "result": 55.00, "unit": "%"},
      {"measurement": "% Corrected Mortality at 72 Hrs.", "setting": "Spodoptera litura [15]; [22]", "result": 52.63, "unit": "%"},
      {"measurement": "Total No. of dead insect at 48 Hrs.", "setting": "Mealy Bug [16]; [23]", "result": 3.00},
      {"measurement": "% Mortality at 48 Hrs.", "setting": "Mealy Bug [16]", "result": 30.00, "unit": "%"},
      {"measurement": "% Corrected Mortality at 48 Hrs.", "setting": "Mealy Bug [16]; corrected for water control", "result": 26.32, "unit": "%"},
      {"measurement": "Total No. of dead insect at 48 Hrs.", "setting": "Aphid [17]; 10 insects/treatment, 4 replications, cotton leaves", "result": 7.25},
      {"measurement": "% Corrected Mortality at 48 Hrs.", "setting": "Aphid [17]; 48 hrs", "result": 68.57, "unit": "%"},
      {"measurement": "% Mortality at 48 Hrs.", "setting": "Aphid [17]; 48 hrs", "result": 72.50, "unit": "%"},
      {"measurement": "Total No. of dead insect at 48 Hrs.", "setting": "Aphid [18]", "result": 70.00}
    ]}
  ]
}
